Source: patent publication US10077261B2, “Imidazolin-5-one derivative useful as FASN inhibitors for the treatment of cancer” (Janssen Pharmaceutica NV, priority 2012, dated 2018)

Assays:
[1] = system: A2780 ovarian cells; test: A2780 ovarian cell proliferation assay in lipid reduced medium, without palmitate (MTT); format: cell-based; conditions: Homo sapiens, A2780, 96 h; read-out: pIC50 A2780 Ovarian Cell, Without Palmitate (converted)
[2] = system: A2780 ovarian cells; test: A2780 ovarian cell proliferation assay in lipid reduced medium, with palmitate (MTT); format: cell-based; conditions: Homo sapiens, A2780, 96 h; read-out: pIC50 A2780 Ovarian Cell, With Palmitate (converted)
Procedure, shortened: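 In this palmitate-supplemented format, compound dilutions (30 μM down to 0.01 μM) are added to cells in lipid-reduced serum with 25 μM palmitate, 0.2% fatty-acid-free BSA and 0.25% ethanol. After four days (96 h) MTT absorbance at 544 nm is recorded and fitted by minimum sum of squares.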

[3] = target: T1, hFASN enzyme (full length) (Homo sapiens, UniProt P49327); test: Fatty Acid Synthase (FASN) inhibition scintillation proximity assay; format: biochemical; conditions: for inhibition at 10 µM: read-out: Human FASN % inhibition @ 10 μM, 10 μM test compound; for IC50: read-out: Human FASN pIC50 (converted)
T1 construct: 10 μL hFASN enzyme (full length, 300 ng, purified in house); made in house
Procedure, shortened: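 Read-out relies on hydrophobic ³H-palmitate product, formed from ³H-acetyl-CoA and malonyl-CoA, binding streptavidin imaging beads, measured at 610±20 nm after at least 24 h. Full-length enzyme (300 ng) in phosphate buffer pH 7.5 with DTT; eight compound concentrations, 0.01–30 μM.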

[4] = target: Fatty Acid Synthase Keto-reductase Domain (FASN KR) (Homo sapiens, UniProt P49327); test: Fatty Acid Synthase keto-reductase domain (FASN KR) inhibition, NADPH oxidation at 340 nm
Sequence of Fatty Acid Synthase Keto-reductase Domain (FASN KR) (P49327 whole entry, the tested form may be a part): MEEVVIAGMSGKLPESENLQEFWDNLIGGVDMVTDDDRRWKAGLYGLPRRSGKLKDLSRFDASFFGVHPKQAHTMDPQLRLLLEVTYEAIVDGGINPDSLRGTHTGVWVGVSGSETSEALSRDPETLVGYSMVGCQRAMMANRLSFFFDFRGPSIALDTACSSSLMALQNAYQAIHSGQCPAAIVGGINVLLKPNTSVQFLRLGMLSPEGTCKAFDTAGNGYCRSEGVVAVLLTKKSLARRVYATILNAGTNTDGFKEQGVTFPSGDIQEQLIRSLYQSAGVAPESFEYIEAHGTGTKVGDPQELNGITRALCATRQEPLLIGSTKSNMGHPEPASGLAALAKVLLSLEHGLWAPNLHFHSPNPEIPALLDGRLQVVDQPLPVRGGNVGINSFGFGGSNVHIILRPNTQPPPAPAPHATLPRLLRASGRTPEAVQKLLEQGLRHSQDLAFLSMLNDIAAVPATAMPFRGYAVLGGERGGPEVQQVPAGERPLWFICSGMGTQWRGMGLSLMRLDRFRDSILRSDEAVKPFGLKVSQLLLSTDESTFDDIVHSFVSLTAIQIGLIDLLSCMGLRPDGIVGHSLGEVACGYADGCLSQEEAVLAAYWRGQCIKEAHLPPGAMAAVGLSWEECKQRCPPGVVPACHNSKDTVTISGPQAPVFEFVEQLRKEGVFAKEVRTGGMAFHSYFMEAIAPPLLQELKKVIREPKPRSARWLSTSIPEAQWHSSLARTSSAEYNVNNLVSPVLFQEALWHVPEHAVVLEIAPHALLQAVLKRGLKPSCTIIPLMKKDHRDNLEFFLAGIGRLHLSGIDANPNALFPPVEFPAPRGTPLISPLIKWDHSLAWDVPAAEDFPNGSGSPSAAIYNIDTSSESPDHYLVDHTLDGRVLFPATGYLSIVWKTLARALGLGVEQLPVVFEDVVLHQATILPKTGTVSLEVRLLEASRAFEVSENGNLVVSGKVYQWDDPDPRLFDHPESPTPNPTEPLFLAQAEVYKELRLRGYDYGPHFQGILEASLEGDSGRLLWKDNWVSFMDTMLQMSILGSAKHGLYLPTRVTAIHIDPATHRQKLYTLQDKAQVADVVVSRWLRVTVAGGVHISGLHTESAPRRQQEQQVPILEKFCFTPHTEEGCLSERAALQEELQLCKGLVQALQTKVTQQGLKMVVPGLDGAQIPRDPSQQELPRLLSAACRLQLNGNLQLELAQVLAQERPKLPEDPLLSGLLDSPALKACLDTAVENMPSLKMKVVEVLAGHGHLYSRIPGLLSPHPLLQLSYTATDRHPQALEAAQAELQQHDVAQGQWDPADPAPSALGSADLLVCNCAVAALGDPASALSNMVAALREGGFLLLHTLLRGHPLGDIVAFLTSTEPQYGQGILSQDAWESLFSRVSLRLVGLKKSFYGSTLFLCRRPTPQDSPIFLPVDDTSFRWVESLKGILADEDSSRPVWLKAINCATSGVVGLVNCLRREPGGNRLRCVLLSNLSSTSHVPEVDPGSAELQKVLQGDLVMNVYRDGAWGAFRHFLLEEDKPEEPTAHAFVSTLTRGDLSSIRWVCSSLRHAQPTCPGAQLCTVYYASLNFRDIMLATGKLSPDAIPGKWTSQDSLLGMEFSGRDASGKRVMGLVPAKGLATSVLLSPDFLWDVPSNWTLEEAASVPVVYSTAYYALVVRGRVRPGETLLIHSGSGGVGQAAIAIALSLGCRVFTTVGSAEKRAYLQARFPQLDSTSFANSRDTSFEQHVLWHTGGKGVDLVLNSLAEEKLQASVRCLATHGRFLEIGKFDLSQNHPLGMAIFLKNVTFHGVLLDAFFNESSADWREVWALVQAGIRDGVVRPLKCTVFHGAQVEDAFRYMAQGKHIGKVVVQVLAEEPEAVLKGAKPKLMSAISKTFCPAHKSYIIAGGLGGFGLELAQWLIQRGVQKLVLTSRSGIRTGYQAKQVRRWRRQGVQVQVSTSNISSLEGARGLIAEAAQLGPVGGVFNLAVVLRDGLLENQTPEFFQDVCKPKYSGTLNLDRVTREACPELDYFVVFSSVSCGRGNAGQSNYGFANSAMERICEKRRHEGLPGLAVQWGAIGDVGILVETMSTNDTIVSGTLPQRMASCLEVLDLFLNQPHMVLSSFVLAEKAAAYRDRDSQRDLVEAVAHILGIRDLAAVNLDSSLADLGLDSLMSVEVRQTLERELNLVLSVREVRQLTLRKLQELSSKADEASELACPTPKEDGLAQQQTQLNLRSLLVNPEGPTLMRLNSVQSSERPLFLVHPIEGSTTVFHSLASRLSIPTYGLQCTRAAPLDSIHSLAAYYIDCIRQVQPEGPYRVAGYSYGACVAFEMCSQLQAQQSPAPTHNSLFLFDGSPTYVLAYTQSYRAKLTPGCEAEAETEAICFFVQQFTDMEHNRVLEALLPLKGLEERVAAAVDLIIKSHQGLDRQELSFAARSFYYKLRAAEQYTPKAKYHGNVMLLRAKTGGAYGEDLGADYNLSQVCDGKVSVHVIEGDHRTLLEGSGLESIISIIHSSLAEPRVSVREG
Procedure: After 20 minutes incubation at room temperature the plate was measured again (T2).
The decrease in absorbance was calculated as (Absorbance before incubation T1)−(Absorbance following incubation T2).
A plot of Controlmin versus test compound concentration was fitted to a 4-parameter logistic curve using a non-linear least squares regression method.

T1 sequence (P49327 whole entry): as the sequence (P49327 whole entry, the tested form may be a part) above

Row | IC50 [1] [nM] | IC50 [2] [nM] | inhibition at 10 µM [3] [%] | IC50 [3] [nM] | IC50 [4] [nM] | Compound
1 | ~63.1 | > 10000 | 113 | 43.7 | 70.8 | COC(=O)N1CCC2(CC1)N=C(c1ccc(-c3ccc4[nH]ccc4c3)cc1)N(C[C@@H]1CCN(C(=O)C3CC3)C1)C2=O [compound 15, Methyl 3-{[(3R)-1-(cyclopropylcarbonyl)pyrrolidin-3-yl]methyl}-2-[4-(1H-indol-5-yl)phenyl]-4-oxo-1,3,8-triazaspiro[4.5]dec-1-ene-8-carboxylate]
2 | 398 | > 10000 | 97 | 229 | 347 | COC(=O)N1CCC2(CC1)N=C(c1ccc(-c3ccc4[nH]ccc4c3)cc1)N(CC1CN(C(=O)C3CC3)C1)C2=O [compound 17, Methyl 3-{[1-(cyclopropylcarbonyl)azetidin-3-yl]methyl}-2-[4-(1H-indol-5-yl)phenyl]-4-oxo-1,3,8-triazaspiro[4.5]dec-1-ene-8-carboxylate]
3 | 646 | 8130 | 101 | 158 | 676 | O=C(C1CC1)N1CCC(CN2C(=O)C3(CC3)N=C2c2ccc(-c3ccc4cnccc4c3)cc2)CC1 [compound 20, 6-{[1-(Cyclopropylcarbonyl)piperidin-4-yl]methyl}-5-(4-isoquinolin-6-ylphenyl)-4,6-diazaspiro[2.4]hept-4-en-7-one]
4 | 251 | > 10000 | 100 | 70.8 | 120 | Cn1ncc2ccc(-c3ccc(C4=NC5(CC5)C(=O)N4C[C@@H]4CCN(C(=O)C5CC5)C4)cc3)cc21 [compound 27, 6-{[(3R)-1-(Cyclopropylcarbonyl)pyrrolidin-3-yl]methyl}-5-[4-(1-methyl-1H-indazol-6-yl)phenyl]-4,6-diazaspiro[2.4]hept-4-en-7-one]
5 | 3390 | > 10000 | 81.7 | 933 | 2340 | O=C(C1CC1)N1CCC(CN2C(=O)C3(CC3)N=C2c2ccc(-c3ccc4[nH]ncc4c3)cc2)CC1 [compound 29, 6-{[1-(Cyclopropylcarbonyl)piperidin-4-yl]methyl}-5-[4-(1H-indazol-5-yl)phenyl]-4,6-diazaspiro[2.4]hept-4-en-7-one]
6 | 380 | > 10000 | 108 | 57.5 | 282 | O=C(C1CC1)N1CC[C@@H](CN2C(=O)C3(CC3)N=C2c2ccc(-c3ccc4ccncc4c3)cc2)C1 [compound 30, 6-{[(3R)-1-(Cyclopropylcarbonyl)pyrrolidin-3-yl]methyl}-5-(4-isoquinolin-7-ylphenyl)-4,6-diazaspiro[2.4]hept-4-en-7-one]
7 | 28.8 | > 10000 | 107 | 21.9 | 35.5 | O=C(C1CC1)N1CC[C@@H](CN2C(=O)C3(CC3)N=C2c2ccc(-c3ccc4[nH]ccc4c3)cc2)C1 [compound 31, 6-{[(3R)-1-(Cyclopropylcarbonyl)pyrrolidin-3-yl]methyl}-5-[4-(1H-indol-5-yl)phenyl]-4,6-diazaspiro[2.4]hept-4-en-7-one]
8 | 251 | > 10000 | 109 | 25.7 | 56.2 | O=C(C1CC1)N1CC[C@@H](CN2C(=O)C3(CCCC3)N=C2c2ccc(-c3ccc4cc[nH]c4c3)cc2)C1 [compound 33, 3-{[(3R)-1-(Cyclopropylcarbonyl)pyrrolidin-3-yl]methyl}-2-[4-(1H-indol-6-yl)phenyl]-1,3-diazaspiro[4.4]non-1-en-4-one]
9 | 776 | > 10000 | 102 | 117 | 355 | Cn1ncc2ccc(-c3ccc(C4=NC5(CCCC5)C(=O)N4C[C@@H]4CCN(C(=O)C5CC5)C4)cc3)cc21 [compound 34, 3-{[(3R)-1-(Cyclopropylcarbonyl)pyrrolidin-3-yl]methyl}-2-[4-(1-methyl-1H-indazol-6-yl)phenyl]-1,3-diazaspiro[4.4]non-1-en-4-one]
